Common to all, as to assay type: biochemical, uncultured bacterium
In assay [1] the test system is SN243. The assay can be described thus: absorbance at […] nm, initial rates, Michaelis-Menten fit. The note with it: 100 mM Tris pH 8.0, 150 mM NaCl, 25 °C.
In assay [2] the test system is SN243. Put plainly: fluorescence, initial rates, Michaelis-Menten fit. The note with it: 100 mM Tris pH 8.0, 150 mM NaCl, 25 °C.
Assay [3] relates to SN243. Put plainly: product inhibition of pNP-β-GlcA hydrolysis. The conditions noted are these: 10 μM pNP-β-GlcA; 100 mM Tris pH 8.0, 150 mM NaCl, 25 °C.

For orientation: Km means the substrate concentration at which the rate is half of its maximum. Usually IC50 stands for the concentration needed to halve the response being measured.

As to `O=C(O)[C@H]1O[C@@H](Oc2ccc([N+](=O)[O-])cc2)[C@H](O)[C@@H](O)[C@@H]1O` [pNP-β-GlcA], the Km in the assay with SN243 [1] was determined as 0.0137 mM. Still for that read-out and setting: next, `O=[N+]([O-])c1ccc(O[C@@H]2OC[C@@H](O)[C@H](O)[C@H]2O)cc1` [pNP-β-Xyl]: 23 ± 0.9 mM. With `O=C1OC2(c3ccc(O[C@@H]4O[C@H](C(=O)O)[C@@H](O)[C@H](O)[C@H]4O)cc3Oc3cc(O[C@@H]4O[C@H](C(=O)O)[C@@H](O)[C@H](O)[C@H]4O)ccc32)c2ccccc21` [FD-β-GlcA], the Km in the assay with SN243 [2] amounted to 8 µM. For the compound `O=[N+]([O-])c1ccc(O[C@@H]2O[C@H](CO)[C@@H](O)[C@H](O)[C@H]2O)cc1` [pNP-β-Glc], the Michaelis-Menten constant (Km) in the assay with SN243 [1] was 56.5 ± 4.1 mM. As for `O=C(O)[C@H]1OC(O)[C@H](O)[C@@H](O)[C@@H]1O` (some centres unmarked) [GlcA], inhibition in the assay with SN243 [3] was half-maximal at 179 µM (IC50).

(Values after article doi:10.1101/2022.04.25.489410v1 (biorxiv, 2022).)
